Reference: a melting point compilation (Tetko et al.)

melting point	Compound
101 to 102 °C	CC(=O)OC1CC2C(CCC3(C)C(C(C)CCCC(C)C)CCC23)C2(C)CCC(=O)C=C12 (stereo not given)
52 to 53 °C	O=Cc1ccc2c(c1)OCCO2
45 to 47 °C	COc1cccc(OC)c1N=C=O
105 to 107 °C	CCCNC(=O)C(C(F)(F)F)C(F)(F)F
143 °C	C=CCOc1c(Cc2cc(C(C)=O)c(O)c(C)c2OCC=C)cc(C(C)=O)c(O)c1C
45 °C	OCCOc1cccc2ccccc12
91 to 94 °C	Cc1ccc(C(=O)c2ccccc2N)cc1
205 °C	Cc1ccc(C(=O)c2ccccc2C(=O)O)cc1[N+](=O)[O-]
27 to 28 °C	O=C=Nc1ccc(F)c([N+](=O)[O-])c1
217 to 218 °C	C/C(=N\CC(O)CO)c1c(O)c2ccccc2n(-c2ccccc2)c1=O (stereo not given)
48 to 51 °C	Cc1ccc(S(=O)(=O)OCCOCc2ccccc2)cc1
166 to 167 °C	O=C(C=Cc1cccc([N+](=O)[O-])c1)c1ccc(F)cc1
-12 °C	CCCCCCC(=O)OC(=O)CCCCCC
56 °C	Nc1c(Cl)cc(F)cc1Cl
139 °C	S=C(SN1CCOCC1)N1CCOCC1
197 °C	O=C(Oc1ccccc1)c1ccc(C(=O)Oc2ccccc2)cc1
56 °C	Cc1ccc(O)cc1Br
-92 °C	C=O
124 °C	COc1cc(/C=C/c2cc(C)cc(OC)c2O)ccc1O
201 to 202 °C	C=CCN=C(NCC=C)c1cc(C(C)(C)C)c(O)c(C(C)(C)C)c1
202 °C	O[Si](O)(c1ccccc1)c1ccccc1
80 to 81 °C	Cc1nc(-c2ccc(N=C=O)cc2)cs1
130 °C	CC(=O)Oc1c(-c2ccccn2)[nH]c2ccccc12

melting point	Compound
166 to 168 °C	CC1NC(C(=O)O)C(C)(C)S1 (mixture of isomers)
134 to 135 °C	N#Cc1ccc(OC2CCOCC2)nc1
50 to 52 °C	CCOC(=O)c1csc(-c2ccc(F)cc2F)n1
114 to 117 °C	CC(C)(C)OC(=O)NC(=O)OC(C)(C)C
130 °C	Cc1cccc(C(=O)O)n1
76 °C	COc1cc(C=O)ccc1OC(C)=O
119 to 124 °C	Oc1ccc(-n2cccc2)cc1
147 to 151 °C	CC(C)(C)OC(=O)CC(NC(=O)OCC1c2ccccc2-c2ccccc21)C(=O)O (stereo not given)
102 to 103 °C	CC(=O)NC(C)c1ccccc1 (stereo not given)
50 °C	OCCCCC#CC#CCCCCO
63 °C	N#CCc1cccc([N+](=O)[O-])c1
31 °C	CCCCCCCCCCC(=O)CC
63 to 64 °C	O=C(c1ccccc1)N1CCNCC1
203 °C	Nc1cc(C(Cl)=C(Cl)Cl)c(S(N)(=O)=O)cc1S(N)(=O)=O
181 to 183 °C	NC(=S)NC(N)=S
122 °C	CC(=O)C1=Cc2ccccc2C1
32 to 34 °C	NCc1ccc2occc2c1
214 to 215 °C	COc1cccc2cc(C(=NO)c3cc4cccc(OC)c4o3)oc12
93 °C	COc1cccc(OC)c1Br
263 °C	COc1ccc(C=C(C(=O)O)C(=Cc2ccc(OC)cc2)C(=O)O)cc1
169 °C	N[C@@H](CCC(=O)OCc1ccccc1)C(=O)O
82 to 84 °C	O=C(C=CC(=O)OCC(F)(F)C(F)(F)C(F)(F)C(F)(F)C(F)(F)C(F)(F)C(F)(F)F)OCC(F)(F)C(F)(F)C(F)(F)C(F)(F)C(F)(F)C(F)(F)C(F)(F)F
200 °C	CCOC(=O)c1sc2sc(C(=O)OCC)c(N)c2c1N

melting point	Compound
174 °C	NC(=S)c1ccc(C2SCCS2)cc1
145 °C	O=C(c1ccc(Br)cc1)c1noc(-c2ccc(Cl)cc2)c1S(=O)(=O)c1ccccc1
120 to 121 °C	Cc1c(CO)cnn1-c1ccc(F)cc1
133 °C	Cc1n[nH]cc1[N+](=O)[O-]
177 to 179 °C	CCOC(=O)CNc1nc(N)n[nH]1
138 to 141 °C	N#CN=CNc1ccccc1
92 to 95 °C	O=C(O)c1ccccc1-c1cccs1
62 °C	c1c2c(cc3c1OCO3)CC2
242 to 244 °C	CSc1nc2nc(C)cc(C)c2c(=O)[nH]1
120 to 121 °C	O=C1C(=Cc2ccco2)SC(=S)N1CN1CCCCC1
50 to 55 °C	Cc1cc(N)ccc1I
231 to 232 °C	CC(=C\OC(=O)c1ccccc1)/C(C)=N/OC(=O)c1ccccc1
146 to 147 °C	CCOC(=O)c1[nH]c(C)c(C(C)=O)c1C
78 to 79 °C	CCOC(=O)c1c(Cl)cc(C)cc1N1CCCC1
169 °C	CC(C)(O)C(Br)(Br)Br
368 °C	c1ccc2c(c1)ccc1c2ccc2c3ccccc3ccc21
99 °C	CC(C)(C)c1ncc(C(=O)Nc2cc(C(F)(F)F)cc(C(F)(F)F)c2)nc1Cl
107 to 109 °C	CN1CCOc2cc(C#N)cnc21
102 to 104 °C	CC(=O)N1CCc2ccccc21
160 °C	Cc1nn(-c2ccccc2)nc1C(=O)NO
4 °C	Ic1cccc2ccccc12
193 °C	Nc1ccccc1/C=C/c1cc(/C=C/c2ccccc2)c([N+](=O)[O-])cc1[N+](=O)[O-]
177 °C	CC(CCC(=O)O)C1CCC2C3CCC4CC(O)CCC4(C)C3CC(O)C12C (stereo not given)

melting point	Compound
92 to 96 °C	c1ccc2sc(Cc3nc4ccccc4s3)nc2c1
89 °C	CC(=O)SCC(Cc1ccccc1)C(=O)NCC(=O)OCc1ccccc1 (stereo not given)
190 °C	N#CC(c1ccc(Sc2ccccc2)nn1)c1c(Cl)cccc1Cl (stereo not given)
36 to 40 °C	Cc1cc(Cl)ncc1[N+](=O)[O-]
220 to 224 °C	CCOC(=O)c1c(Nc2ccc(OC)cc2)sc2c(-c3ccc(Cl)cc3)c(C#N)c(N)nc12
106 °C	Ic1cccc2cccc(I)c12
141 °C	CC12CCC(C(C(Br)c3ccccc3)OC1=O)C2(C)C (stereo not given)
64 °C	Clc1ccc2nccnc2c1
54 °C	CSC(=NC#N)SC
138 to 143 °C	Cn1cc(NC(=O)OC(C)(C)C)cc1C(=O)O
80 °C	O=P(O)(OCc1ccccc1)OCc1ccccc1
60 to 62 °C	O=C(Cl)c1ccc(Oc2cc(Cl)cc(Cl)c2)o1
132 °C	COC(=O)C=Cc1cccc(C=CC(=O)OC)c1
38 to 39 °C	O=C(O)CCC(F)(F)C(F)(F)C(F)(F)F
142 °C	COc1ccccc1OCC(N)=O
256 to 258 °C	CC(=O)N[C@@H](CCCCN)C(=O)O
154 °C	O=C(O)c1cc(Cl)ccc1Br
78 °C	c1ccc(-c2cccc(-c3ccccc3)n2)cc1
126 to 129 °C	CC(C)(Oc1ccc(Cl)cc1)C(N)=O
-49.5 °C	CCC(Br)=CBr
164 °C	COc1ccc(-n2nc(C(=O)c3cccs3)sc2=N)cc1
72 °C	CC(=O)OC(OC(C)=O)c1cccc([N+](=O)[O-])c1
168 °C	CC1=NOC(=O)C1=NNc1ccccc1Cl

melting point	Compound
53.4 °C	BrC/C=C/CBr
93 to 95 °C	ON=C(Cl)c1ccc(Cl)cc1Cl
197 °C	Oc1nc(C2CCCCC2)nn1-c1ccccc1
185 to 187 °C	Cc1nc(-c2ccccc2)ncc1C(=O)NN
178 to 179 °C	Cc1ccc(Cc2c(N)nn3c(C)cc(C)nc23)cc1
47 to 48 °C	C#CC(O)(c1ccccc1)c1ccccc1
40 to 42 °C	N#Cc1ccc(OC(F)F)cc1
151 to 152 °C	CC(=O)Nc1ccccc1-c1cc2ccccc2[nH]1
58 to 60 °C	Cc1ccc2sc(C(=O)Cl)cc2c1
218 °C	CC(=O)Nc1cc(N)c(C=Cc2ccccc2)cc1/C=C/c1ccccc1
127 to 128 °C	O=C(Cl)c1cc2ccccc2n1S(=O)(=O)c1ccccc1
29.5 °C	CCCS(=O)(=O)CCC
139 to 141 °C	CCOC(=O)c1sc(SCc2ccccc2)c2c1CCCC2=O
88 °C	Cc1cnc(N)c(I)c1
123 °C	Clc1nnnn1-c1ccccc1
29 °C	Oc1cc(F)cc(F)c1F
345 °C	COc1cccc2c1C(=O)c1c(O)c3c(c(O)c1C2=O)CC(O)(C(=O)CO)CC3OC1CC(N)C(O)C(C)O1 (stereo not given)
59 °C	O=Cc1ccc(Cl)cc1F
147 to 148 °C	O=Cc1ccc(-c2cncnc2)cc1
64 °C	COc1c(C)cc(N)cc1C
144 °C	O=C(Cl)c1cn(S(=O)(=O)c2ccccc2)c2ccccc12

Compound	melting point
CN(N=Cc1ccc(Br)cc1)P(=O)(N1CC1)N1CC1	118 °C
COc1cc(OC)n2nc(S(=O)(=O)Nc3c(Cl)ccc(C)c3Cl)nc2n1	211 °C
CC(C)N(C(=O)Cl)C(C)C	55 to 60 °C
CCOC(=O)C1(C)OC(=O)N(c2cc(Cl)cc(Cl)c2)C1=O (stereo not given)	113 °C
CN1CCN(c2ccccc2C=O)CC1	44 to 48 °C
CC1(C)OC(c2ccco2)CN1C(=O)C(Cl)Cl (stereo not given)	97 °C
CN1CCN(c2ccc(C=O)cc2)CC1	57 to 60 °C
Clc1ccc(C(Cl)(Cl)Cl)cc1Cl	25.8 °C
CN(C)Cc1c[nH]c2ccccc12	138 °C
C=CC1CN2CCC1CC2C12Nc3ccccc3C1(O)CCO2 (stereo not given)	186 °C
O=C1C=C(Cl)C(=O)C(Cl)=C1	123 °C
COc1ccc2c(c1)[nH]c1c(C)nccc12	273 °C
CCOC(=O)C(Br)C(C)Br (stereo not given)	58.5 °C
CC(=O)Oc1ccc2c3c1OC1C(OC(C)=O)C=CC4C(C2)N(C)CCC341 (stereo not given)	173 °C
O=[N+]([O-])C=Cc1cc(Cl)ccc1O	148 to 154 °C
NC1CCC(CC2CCC(N)CC2)CC1 (stereo not given)	64.7 °C
CCOC(=O)CC(=O)CCl	-8 °C
